Consider two compounds from publication PMC12687421, “Characterisation of an allosteric site in PLCγ enzymes and implications for development of their specific inhibitors” (Biochemical Journal, 2025).

The target of one assay is T1, PLCγ1^K491D (Homo sapiens, UniProt P19174, I813T/K491D).
T1 construct: made in house; host or cells: Escherichia coli T7 Express lysY/Iq
T1 sequence (P19174 1-1291 isoform P19174-2 K491D/I813T): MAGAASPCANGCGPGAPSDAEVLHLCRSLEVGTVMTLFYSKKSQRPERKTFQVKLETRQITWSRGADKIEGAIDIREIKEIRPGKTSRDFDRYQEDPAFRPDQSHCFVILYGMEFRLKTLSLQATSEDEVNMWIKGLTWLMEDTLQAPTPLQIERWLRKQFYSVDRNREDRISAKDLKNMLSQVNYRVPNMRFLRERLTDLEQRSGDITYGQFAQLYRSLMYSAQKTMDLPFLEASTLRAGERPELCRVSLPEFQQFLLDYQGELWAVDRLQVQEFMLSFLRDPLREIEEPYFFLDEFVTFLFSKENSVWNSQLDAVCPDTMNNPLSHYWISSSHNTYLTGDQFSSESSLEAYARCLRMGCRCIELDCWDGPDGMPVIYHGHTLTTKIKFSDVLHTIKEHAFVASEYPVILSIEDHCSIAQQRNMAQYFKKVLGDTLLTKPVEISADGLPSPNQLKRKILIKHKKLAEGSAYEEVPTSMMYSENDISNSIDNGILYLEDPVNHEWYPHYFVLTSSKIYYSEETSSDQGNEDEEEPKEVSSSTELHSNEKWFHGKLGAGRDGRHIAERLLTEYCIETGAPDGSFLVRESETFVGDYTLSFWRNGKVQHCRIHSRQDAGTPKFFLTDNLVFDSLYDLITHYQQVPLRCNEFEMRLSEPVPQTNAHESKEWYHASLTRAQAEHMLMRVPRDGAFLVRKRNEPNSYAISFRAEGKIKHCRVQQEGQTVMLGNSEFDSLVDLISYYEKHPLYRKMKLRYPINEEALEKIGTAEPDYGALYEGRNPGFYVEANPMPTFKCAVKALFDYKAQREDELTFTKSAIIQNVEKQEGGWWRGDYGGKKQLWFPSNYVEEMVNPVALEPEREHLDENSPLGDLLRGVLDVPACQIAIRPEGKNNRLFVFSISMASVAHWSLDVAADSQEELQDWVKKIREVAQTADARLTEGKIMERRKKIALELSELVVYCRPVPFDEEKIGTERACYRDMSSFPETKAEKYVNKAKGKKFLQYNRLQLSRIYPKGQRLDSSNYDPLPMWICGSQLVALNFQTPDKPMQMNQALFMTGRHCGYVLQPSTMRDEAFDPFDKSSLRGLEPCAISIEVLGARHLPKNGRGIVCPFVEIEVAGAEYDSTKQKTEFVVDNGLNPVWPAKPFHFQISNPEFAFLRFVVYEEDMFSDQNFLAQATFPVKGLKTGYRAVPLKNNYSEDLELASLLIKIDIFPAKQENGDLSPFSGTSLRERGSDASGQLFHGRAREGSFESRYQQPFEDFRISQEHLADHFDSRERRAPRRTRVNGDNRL
The experiment in a line: Microscale thermophoresis (MST) binding, K491D variant. The following applies: read-out: estimated Kd, MST, PLCγ1^K491D. How it is done:
Proteins were diluted to 200 nM in MST buffer [50 mM Hepes.KOH, 70 mM KCl, 5% (v/v) glycerol, 0.05% (v/v) Tween-20, 2 mM DTT (pH 7.5)] and subsequently labelled by adding an equal volume of 100 nM 2nd generation RED-Tris-NTA labelling dye and incubating for 30 minutes. […] An equal volume of labelled protein was added to each ligand concentration and the mixture taken up into a standard MST capillary. Samples were measured in a Monolith NT.115 pico instrument (Nanotemper) using the Nano-RED channel. Excitation power was set to 5% and MST power set to high. All experiments were performed at 25°C. All data were analysed using the manufacturer’s MO.Control software and repeated at least three times with representative experiments shown.

Another assay concerns the target T2, PLCγ1^wt (Homo sapiens, UniProt P19174, I813T).
T2 construct: specific activities of PLCγ1^wt and PLCγ2^wt full-length proteins; made in house; host or cells: Escherichia coli T7 Express lysY/Iq
T2 sequence (P19174 1-1291 isoform P19174-2 I813T): T1 sequence (P19174 1-1291 isoform P19174-2 K491D/I813T) with D491K
The experiment in a line: PLC activity assay 1 (A1), XY-69 substrate in liposomes, nucleotide inhibition. The class given is biochemical. The following applies: for pIC50: XY-69 in liposomes, mean and SD, nine replicates.

SMILES strings stand for the structures. Numbering of substitutions follows the chain as printed. pIC50, pKd: −log10 of the molar value.

By pKd is commonly meant the negative decadic logarithm of the Kd, by convention in mol/L. A word on the pIC50: it is the negative decadic logarithm of the IC50, by convention in mol/L. With `Nc1ncnc2c1ncn2[C@@H]1O[C@H](COP(=O)(O)OP(=O)(O)OP(=O)(O)O)[C@@H](O)[C@H]1O` [ATP], the negative logarithm of the Kd (pKd) on PLCγ1^K491D is around 3.15. Moreover, the negative-log IC50 (pIC50) against PLCγ1^wt is 4.70 to 6.00.

With `Nc1ncnc2c1ncn2[C@@H]1O[C@H](COP(=O)(O)OP(=O)(O)O)[C@@H](O)[C@H]1O` [ADP], the negative logarithm of the Kd (pKd) at PLCγ1^K491D is 2.70 to 3.00. At PLCγ1^wt, the “IC50 in liposome assay (A1) relative to solution assay (A2), fold lower” value was “eight-fold” and the pIC50 is 4.70 to 6.00. For the same compound, the “IC50 of ADP relative to ATP (fold lower)” value at PLCγ1^wt (assays A1 and A2) is 2–4 fold.
